Assay [1] concerns the target T1, thrombopoietin receptor (human TPOR) (Homo sapiens, UniProt P40238).
T1 construct: gene MPL; MPL open reading frame (NM_005373.2) in pCMV-3Tag-3a, expressed in BaF3 and 32D cells
T1 sequence (P40238 26-635): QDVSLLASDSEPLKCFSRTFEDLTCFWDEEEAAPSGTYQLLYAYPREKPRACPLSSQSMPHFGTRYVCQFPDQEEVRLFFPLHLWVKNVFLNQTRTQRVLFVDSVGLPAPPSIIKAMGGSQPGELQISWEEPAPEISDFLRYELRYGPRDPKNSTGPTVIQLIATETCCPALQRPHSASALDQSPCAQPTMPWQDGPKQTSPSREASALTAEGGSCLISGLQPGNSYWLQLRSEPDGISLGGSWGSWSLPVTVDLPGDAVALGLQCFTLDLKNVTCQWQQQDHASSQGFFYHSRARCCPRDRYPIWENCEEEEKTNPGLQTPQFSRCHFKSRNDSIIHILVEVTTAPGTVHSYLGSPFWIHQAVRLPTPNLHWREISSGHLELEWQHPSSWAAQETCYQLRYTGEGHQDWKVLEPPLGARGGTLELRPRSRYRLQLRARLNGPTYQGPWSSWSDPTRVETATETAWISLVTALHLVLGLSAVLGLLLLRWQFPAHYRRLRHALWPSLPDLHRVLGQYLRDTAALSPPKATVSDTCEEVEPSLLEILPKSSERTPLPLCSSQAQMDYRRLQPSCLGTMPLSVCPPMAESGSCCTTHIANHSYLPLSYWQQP
Nature of the assay: STAT5 phosphorylation Western blot in parental vs human TPOR-expressing murine cells, […]. Type of assay: cell-based. Background: In western blotting, separated proteins are transferred to a membrane and probed.

Another assay addresses T2, TET1 (Homo sapiens, UniProt Q8NFU7).
T2 construct: recombinant catalytic domain (Epigentek, E12002-1)
T2 sequence (Q8NFU7 1418-2136 limits assumed): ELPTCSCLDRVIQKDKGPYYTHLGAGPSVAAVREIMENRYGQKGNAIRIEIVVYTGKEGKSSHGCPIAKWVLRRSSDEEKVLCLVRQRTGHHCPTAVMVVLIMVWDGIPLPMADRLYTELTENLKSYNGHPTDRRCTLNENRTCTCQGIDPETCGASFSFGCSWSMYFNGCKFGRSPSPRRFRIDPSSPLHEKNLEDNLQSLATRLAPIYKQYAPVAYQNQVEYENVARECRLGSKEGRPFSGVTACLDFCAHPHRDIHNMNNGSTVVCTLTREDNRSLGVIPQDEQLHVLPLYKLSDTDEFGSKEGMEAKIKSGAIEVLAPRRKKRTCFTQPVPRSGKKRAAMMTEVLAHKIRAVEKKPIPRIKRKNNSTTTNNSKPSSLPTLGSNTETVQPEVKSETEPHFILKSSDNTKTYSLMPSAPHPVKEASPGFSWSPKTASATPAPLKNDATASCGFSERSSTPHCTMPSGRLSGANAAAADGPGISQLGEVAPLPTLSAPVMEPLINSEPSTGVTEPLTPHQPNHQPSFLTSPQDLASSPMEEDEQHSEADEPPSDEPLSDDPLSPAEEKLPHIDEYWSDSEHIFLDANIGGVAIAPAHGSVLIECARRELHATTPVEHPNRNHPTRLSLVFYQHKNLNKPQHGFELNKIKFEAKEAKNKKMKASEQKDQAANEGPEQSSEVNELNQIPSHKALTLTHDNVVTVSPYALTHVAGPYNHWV
Description: 5hmC ELISA with recombinant protein. It is filed as biochemical.

Another assay concerns the target T3, TET3 (Homo sapiens, UniProt O43151).
T3 construct: recombinant catalytic domain (BPS Bioscience, 50163)
T3 sequence (O43151 850-1795 limits assumed): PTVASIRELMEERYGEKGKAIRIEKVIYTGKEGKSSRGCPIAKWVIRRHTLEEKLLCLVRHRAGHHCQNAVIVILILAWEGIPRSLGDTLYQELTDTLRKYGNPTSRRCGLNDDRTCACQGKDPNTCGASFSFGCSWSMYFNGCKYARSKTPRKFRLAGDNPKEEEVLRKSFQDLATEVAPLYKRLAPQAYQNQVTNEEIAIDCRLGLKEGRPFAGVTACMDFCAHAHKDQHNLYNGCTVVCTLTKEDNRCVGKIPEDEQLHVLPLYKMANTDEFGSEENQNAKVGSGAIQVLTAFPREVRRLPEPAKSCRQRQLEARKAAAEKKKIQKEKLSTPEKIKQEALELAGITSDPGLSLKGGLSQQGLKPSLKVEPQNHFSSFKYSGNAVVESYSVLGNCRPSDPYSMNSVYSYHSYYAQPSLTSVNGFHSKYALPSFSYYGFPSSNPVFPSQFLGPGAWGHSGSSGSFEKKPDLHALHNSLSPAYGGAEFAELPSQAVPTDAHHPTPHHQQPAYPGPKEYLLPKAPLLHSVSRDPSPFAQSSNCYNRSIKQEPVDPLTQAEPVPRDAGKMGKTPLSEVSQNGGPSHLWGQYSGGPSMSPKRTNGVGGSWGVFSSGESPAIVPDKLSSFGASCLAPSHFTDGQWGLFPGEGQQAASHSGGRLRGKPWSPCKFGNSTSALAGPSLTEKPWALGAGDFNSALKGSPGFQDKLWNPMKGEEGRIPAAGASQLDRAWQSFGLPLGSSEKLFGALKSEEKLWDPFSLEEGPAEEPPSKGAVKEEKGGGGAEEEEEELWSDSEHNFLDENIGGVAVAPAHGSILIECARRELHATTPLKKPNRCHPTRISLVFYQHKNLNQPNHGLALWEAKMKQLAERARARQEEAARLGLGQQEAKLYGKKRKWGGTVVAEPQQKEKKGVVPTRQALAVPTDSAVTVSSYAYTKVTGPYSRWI
Description: 5hmC ELISA with recombinant protein. It is filed as biochemical. Background: ELISA stands for enzyme-linked immunosorbent assay.

Results on two molecules are retold here after publication PMC8843742, “Eltrombopag inhibits TET dioxygenase to contribute to hematopoietic stem cell expansion in aplastic anemia” (The Journal of Clinical Investigation, 2022).

As for `O=C(Nc1nc(-c2cc(Cl)cs2)c(N2CCN(C3CCCCC3)CC2)s1)c1cnc(N2CCC(C(=O)O)CC2)c(Cl)c1` [Apag, avatrombopag], the “STAT5 phosphorylation Western blot in parental vs human TPOR-expressing murine c” value in assay [1] is “a chemically unrelated non-peptidyl TPOR agonist) all activated the JAK/STAT pathway to the same extent in these cells”.
For `CC1=NN(c2ccc(C)c(C)c2)C(=O)/C1=N\Nc1cccc(-c2cccc(C(=O)O)c2)c1O` [Epag, Eltrombopag], the figures for the concentration for half-maximal inhibition (IC50) at TET1 and on TET3 were 1 ± 0.1 µM and 1.8 ± 0.1 µM, respectively. In addition, the “STAT5 phosphorylation Western blot in parental vs human TPOR-expressing murine c” value in assay [1] was “Reconstitution of human TPOR in murine cells restored STAT5 phosphorylation without any measurable changes in the dioxygenase activity”.
